Assay: Biological Methods: HIV cell culture assay-MT-2 cells, 293T cells and the proviral DNA clone of NL4-3 virus were obtained from the NIH AIDS Research and Reference Reagent Program. MT-2 cells were propagated in RPMI 1640 media supplemented with 10% heat inactivated fetal bovine serum (FBS), 100 jag/ml penicillin G and up to 100 units/mL streptomycin. The 293T cells were propagated in DMEM media supplemented with 10% heat inactivated FBS, 100 μg/mL penicillin G and 100 μg/mL streptomycin. A recombinant NL4-3 proviral clone, in which a section of the nef gene was replaced with the Renilla luciferase gene, was used to make the reference virus used in these studies. The recombinant virus was prepared through transfection of the recombinant NL4-3 proviral clone into 293T cells using Transit-293 Transfection Reagent from Mirus Bio LLC (Madison, Wis.). Supernatant was harvested after 2-3 days and the amount of virus present was titered in MT-2 cells using luciferase enzyme activity as a marker by measuring luciferase enzyme activity. Luciferase was quantitated using the EnduRen Live Cell Substrate from Promega (Madison, Wis.). Antiviral activities of compounds toward the recombinant virus were quantified by measuring luciferase activity in MT-2 cells infected for 4-5 days with the recombinant virus in the presence of serial dilutions of the compound.
Assay type: cell-based

Structure (SMILES)	EC50 [nM]
CC1CN(S(=O)(=O)NC(=O)N[C@@H](Cc2cc(F)cc(F)c2)C(=O)N(C)c2ccc3scnc3c2)c2ncccc21 (single isomer, unassigned)	< 10
C[C@@H]1Cc2cccnc2N1S(=O)(=O)NC(=O)N[C@@H](Cc1cc(F)cc(F)c1)C(=O)N(C)c1ccc2scnc2c1	20
C[C@H]1Cc2cccnc2N1S(=O)(=O)NC(=O)N[C@@H](Cc1cc(F)cc(F)c1)C(=O)N(C)c1ccc2scnc2c1	50
C[C@@H]1CCc2ccccc2N1S(=O)(=O)NC(=O)N[C@@H](Cc1cc(F)cc(F)c1)C(=O)N(C)c1ccc2scnc2c1	100
C[C@H]1CCc2ccccc2N1S(=O)(=O)NC(=O)N[C@@H](Cc1cc(F)cc(F)c1)C(=O)N(C)c1ccc2scnc2c1	90

Source: ChEMBL document CHEMBL5726630, “Inhibitors of human immunodeficiency virus replication” (2019)
